# pEC50: −log10 of the molar value. Values joined by “and” are separate entries in the source; they are usually repeats but may differ in a detail not shown here. Identical values can stand only once.
# Legend:
# GLP-1+ L cells = assay: Density of GLP-1+ L-cells on differentiated colonic monolayers; type: cell-based, human; conditions: for formation of L-cells: addition during differentiation, 4 days
# From the text: Enteroendocrine (EEC) cells within the intestinal epithelium consist of at least 15 different subtypes. Enterochromaffin (EC) cells are the most abundant subtype, comprising about 40% of EEC cells in the gastrointestinal tract. Besides EC cells, at least one other important EE subtype is L-cells, which are major regulators of the gut-brain interactions and are pivotal in regulating appetite and glucose homeostasis^4. L-cells co-secrete peptide hormones GLP-1 and PYY in response to the ingestion of food^5-8. GLP-1 stimulates the secretion of insulin from pancreatic β-cells^9,10, decreases gastric emptying and increases satiation^11. PYY slows GI motility and reduces food intake^12. Due to their important function as regulators of postprandial response to nutrients, L-cells are of specific interest in the field of obesity and diabetes^3-17. L-cells were also identified in the VIP-ALI cultured monolayers at a density of 12±2 mm^2 and constituted about 14% of the EE population (FIG. 7). However, the density of L-cells is still too low to perform a reliable functional assay of GLP-1/PYY secretion. Thus, further experiments were conducted to develop optimal protocols to enrich L-cells (see Example 7).
# Experiments were conducted to systemically optimize four conditions to enrich L-cells: (1) ±ALI, (2) ±VIP, (3) R-spondin/Noggin ratio at 1:4, 1:1 and 4:1 in differentiation medium, (4) ±BIMU8 (a potent 5-HT4 agonist). The colonic stem cells were plated on a porous membrane coated with Matrigel and cultured for 3 days in growth factor-enriched medium until the cell monolayer reach confluence. Then the cells were differentiated for 4 days and the density of GLP-1^+ L cells was used as the readout (FIG. 8A). […] The R-spondin/Noggin ratio in differentiation medium also affected the density of L-cells, and the best result was obtained by using a ratio of 4/1. By using the conditions disclosed herein (ALI, VIP, R-spondin/Noggin=4/1, BIMU8), 137±12 cells/mm^2 GLP-1^+ L-cells were obtained, which is about 46 times higher than 3±2 cells/mm^2 in the previously used conditions (submerged, —VIP, R-spondin/Noggin=1/1, -BIMU8), and 11 times higher than 12±2 mm^2 in VIP-ALI culture (+ALI, +VIP, R-spondin/Noggin=1/1, -BIMU8).
# [1] = system: EEC (ChgA+) and EC (5HT+) cells; assay: Number of EEC (ChgA+) and EC (5HT+) cells on monolayers by immunofluorescence staining; type: cell-based
# Protocol: (§1) The fraction of EC among EEC remained in the range of 45-51% in these differentiation conditions, which is consistent with their fraction in the body that EC make up over 70% of the EEC population in the proximal colon and falls to around 40% in the rectum.^2 To test if the enriched EC cells increases 5HT secretion, the monolayers were stimulated with vehicle (DMSO) or forskolin (10 μM). […] The induction is 6.1× over the vehicle control (0.62±0.07 ng/mL). Therefore, the enriched EC cells improves the 5HT secretion assay by increasing the signal/background ratio.
# It is likely that stem cells make lineage-fate decisions at the proliferation stage toward enterocytes and goblets cells, which are the major cell types in the intestinal epithelium. We can add signaling molecules, such as CHIR99021, to prevent the early lineage-fate decision and force the stem cells to stay at their ground state. CHIR99021 activates Wnt signaling by inhibition of GSK3. When the stem cells were cultured in EM under 3 μM CHIR99021 prior to conventional submerged culture in DM, the presence of EC cells was increased by almost 200% (FIGS. 11A and 11B). […] Besides CHIR99021, other Wnt activators (WAY316606, ABC99, IQ1, arylpyrimidine), and recombinant proteins of Wnt-3A and R-spondin (Wnt signaling enhancer) may be able to increase the formation of EC cells. We have not studied the synergistic effect of Wnt activator (in EM) and VIP-assisted ALI (in DM), but we expect the combination of both strategies will further increase the formation of EEC and EC cells.
# [2] = system: EC cells in monolayers derived from human transverse colon stem cells; assay: 5HT secretion assay (ELISA of basal medium) on stem-cell-derived colonic monolayers after apical stimulation; type: cell-based; conditions: for 5HT induction: pungent food ingredient screen, apical stimulation 4 h, EC-enriched monolayers, donor 2
# [3] = system: EC cells in monolayers derived from human transverse colon stem cells; assay: as above; type: cell-based
# From the text: Culture conditions for intestinal epithelial monolayer platform have been optimized in a previous publication, and the medium composition for yielding the maximal expression levels of EEC cell lineage marker gene ChgA was investigated.^11 Nicotinamide and p38 MAP kinase inhibitor (SB202190), two compounds commonly used in intestinal epithelial cell culture, are removed from medium due to their suppression of differentiation towards secretory cells. Inclusion of A 8301, a TGF-β receptor signaling inhibitor, is required for proper differentiation and cell morphology of monolayer cultures. Herein, the same medium composition was adopted and the in vitro monolayers were generated from stem cells derived from human transverse colon using the traditional submerged culture. The EEC (ChgA+) and EC (5HT+) cells presented at a density of 22±5 and 10±3 mm^−2, respectively (FIG. 2A, 2B). Accordingly, the total number of EC cells in a 96-well insert (surface area=11 mm^2) is 110±33. To test if the number of EC cells is enough for functional assays, the monolayers were stimulated with vehicle (dimethyl sulfoxide [DMSO]) or forskolin (10 μM) at the apical side for 4 h, and the released 5HT from the basal side was collected and quantified (FIG. 2C). Forskolin is a potent stimulus of 5HT release though activation of the cAMP-dependent pathway.^18 In three independent experiments, stimulated 5HT secretion by forskolin was 0.97±0.34, 0.88±0.28, and 0.60±0.23 ng/mL, respectively, corresponding to 3.6×, 2.1× and 2.4× induction over the vehicle controls (0.27±0.10, 0.42±0.18 ng/mL, and 0.25±0.07 respectively). Significant inter-experiment variability was observed due to high standard deviation of the 5HT measurements: the results in the first experiment were considered to be statistically non-significant (p>0.05, t-test), statistically significant (p<0.05) in the second one, but statistically non-significant (p>0.05) again in the third experiment. The high standard deviation came from a number of sources: error in 5HT measurement through enzyme-linked immunosorbent assay (ELISA), well-to-well variation, 5HT residue (mainly from the fetal bovine serum in the medium) left in the well, and 5HT that spontaneously leached out from the apoptotic ECs during assay. To improve the reliability of 5HT secretion assay and its signal/background ratio, the number of EEC and EC cells in monolayers need to be enriched.
# as §1
# As the generation and storage of 5HT inside granules of EC cells depends on the cell maturation, the level of 5HT secretion is affected by the differentiation length of the monolayers. To find out the optimal duration for differentiation, the monolayers were subjected to VIP-assisted ALI culture for 3-7 days. As expected, the forskolin stimulated 5HT secretion increased with differentiation length (due to cell maturation), so did the non-stimulated basal secretion (FIG. 4E). The barrier integrity was remained (Papp<4×10^−7 cm/s) for all samples, except for those under 7 days in differentiation in which the cells may start to undergo apoptosis (FIG. 4F). 5 days in differentiation was considered to be optimal since it generated monolayers with high 5HT induction (5.7×) and monolayer barrier integrity. This duration is coincident with life span of differentiated epithelium in human colon. Unless otherwise specified, 5 days were used for differentiation in this invention. […]
# [4] = system: colonic monolayers derived from human transverse colon; assay: Monolayer barrier integrity (Papp, TEER); type: cell-based; conditions: VIP-assisted ALI culture, n=6
# From the text: Besides the elevated 5HT secretion, an additional advantage of VIP-assisted ALI culture is the improved barrier integrity (FIG. 4D). […] The cell respiration combined with the low diffusion rate of oxygen in the growth medium can lead to a reduced oxygen availability to the cells.^22 ALI culture can increase the oxygen availability, but the cells were stressed due to the complete dry up at the apical surface. […] Conversely, VIP-assisted ALI culture maintained a thin layer of fluid (about 0.4 mm thick) at the apical side, thus increasing the oxygen availability and at the same time as eliminating the stress from dry up. The high integrity of monolayers is needed to effectively segregates the apical and basal reservoirs to prevent the leakage of the stimulants and 5HT.
# [5] = ALI, VIP, R-spondin/Noggin=4/1, BIMU8
compound,measurement,setting,value
CC(C)n1c(=O)n(C(=O)NC2CC3CCC(C2)N3C)c2ccccc21 (stereo not drawn) [BIMU8],"L-cell density, times higher than VIP-ALI culture (+ALI, +VIP, R-spondin/Noggin=1/1, -BIMU8)",GLP-1+ L cells; [5],11 times
same,"L-cell density, times higher than previously used conditions (submerged, -VIP, R-spondin/Noggin=1/1, -BIMU8)",GLP-1+ L cells; [5],about 46 times
same,GLP-1+ L-cells density,"GLP-1+ L cells; ALI, VIP, R-spondin/Noggin=4/1, BIMU8, 4 days differentiation",137±12 cells/mm^2
same,formation of L-cells,GLP-1+ L cells,increased the formation of L-cells
Cc1c[nH]c(-c2cnc(NCCNc3ccc(C#N)cn3)nc2-c2ccc(Cl)cc2Cl)n1 [CHIR99021],increase of presence of EC cells,[1]; 3 μM CHIR99021 in EM prior to conventional submerged culture in DM,~200%
O=CC=Cc1ccccc1 [Cinnamaldehyde],5HT induction,[2],1.8 ×
COc1cc(/C=C/C(=O)CC(=O)/C=C/c2ccc(O)c(OC)c2)ccc1O [curcumin],pEC50,"[2]; Homo sapiens, dose-dependent stimulation of 5HT secretion, read-out: median effective dose (E50) for 5HT secretion",4.29
same,5HT induction,[2],7.3 ×
C=C[C@@]1(C)CC(=O)[C@]2(O)[C@@]3(C)[C@@H](O)CCC(C)(C)[C@@H]3[C@H](O)[C@H](OC(C)=O)[C@@]2(C)O1 [forskolin],5HT induction (forskolin/DMSO),"[3]; donor 1, 2, and 5",> 5.0
same,5HT induction (forskolin/DMSO),[3]; donor 3 and 4,< 3.6
same,stimulated 5HT secretion,"[3]; forskolin 10 μM apical 4 h, monolayers from traditional submerged culture, independent experiments",0.97 ± 0.34 ng/mL and 0.88 ± 0.28 ng/mL and 0.60 ± 0.23 ng/mL and 0.97 ± 0.44 ng/mL
same,induction of 5HT secretion over the vehicle control,"[3]; forskolin 10 μM apical 4 h, submerged culture, three independent experiments",3.6 × and 2.1 × and 2.4 ×
same,induction of 5HT secretion over the vehicle control,"[3]; forskolin 10 μM, VIP-assisted ALI culture",6.1 ×
same,5HT secretion higher than that from submerged culture,"[3]; forskolin 10 μM, VIP-assisted ALI vs submerged culture",390%
same,5HT secretion under forskolin stimulation,"[3]; forskolin 10 μM, monolayer from VIP-assisted ALI culture",3.79 ± 0.57 ng/mL
same,5HT induction,"[3]; forskolin, VIP-assisted ALI culture, 5 days in differentiation (duration study 3-7 days)",5.7 ×
same,induction of 5HT secretion (forskolin/DMSO),"[3]; stem cell passage numbers 7, 9, 11, 13 and 15",4.1-5.7 ×
same,5HT induction,[2],4.9 ×
vasoactive intestinal peptide [VIP],transepithelial electrical resistance (TEER),[4],842±166 ohms cm^2
same,number of EC compared with submerged culture,[1]; VIP added to submerged culture,180%
same,number of EEC compared with submerged culture,[1]; VIP added to submerged culture,177%
same,density of EC,[1]; combination of ALI and VIP,43±9 mm^−2
same,density of EEC,[1]; combination of ALI and VIP,83±11 mm^−2
same,number of EC compared with traditional submerged culture without VIP,[1]; combination of ALI and VIP,430%
same,number of EEC compared with traditional submerged culture without VIP,[1]; combination of ALI and VIP,377%
same,L-cells as share of the EE population,GLP-1+ L cells; VIP-ALI cultured monolayers,about 14%
same,formation of L-cells,GLP-1+ L cells,increased the formation of L-cells

# Source: patent US20230147744A1, “METHODS TO ENRICH ENTEROENDOCRINE CELLS AND THEIR SUBTYPES IN THE CONTIGUOUS, INTESTINAL MONOLAYER SYSTEMS” (The University of North Carolina at Chapel Hill, priority 2020, published 2023)
